Data reported in the CheMixHub viscosity set.
± gives the uncertainty stated by the source.

Assay: xn = mol fraction of the nth substance listed

OCCCl + CCO
viscosity [mPa·s], 101.33 kPa
Details	x1 = 0.0955	x1 = 0.2589	x1 = 0.2902	x1 = 0.3931	x1 = 0.4925	x1 = 0.5932	x1 = 0.6938	x1 = 0.7947	x1 = 0.8984
298.15 K	1.086 ± 0.027	1.262 ± 0.03	1.302 ± 0.031	1.45 ± 0.034	1.61 ± 0.038	1.798 ± 0.042	2.001 ± 0.046	2.222 ± 0.051	2.538 ± 0.058
303.15 K	0.987 ± 0.025	1.14 ± 0.028	1.174 ± 0.029	1.306 ± 0.031	1.447 ± 0.034	1.601 ± 0.038	1.772 ± 0.041	1.958 ± 0.045	2.197 ± 0.05
308.15 K	0.897 ± 0.023	1.034 ± 0.026	1.065 ± 0.026	1.179 ± 0.029	1.297 ± 0.031	1.432 ± 0.034	1.579 ± 0.037	1.735 ± 0.041	1.932 ± 0.045

NC=O + OCC(O)CO
viscosity [mPa·s], 101 kPa
Details	x2 = 0.057	x2 = 0.12	x2 = 0.189	x2 = 0.266	x2 = 0.352	x2 = 0.449	x2 = 0.559	x2 = 0.685	x2 = 0.83
303.15 K	4.08 ± 0.04	5.13 ± 0.04	7.21 ± 0.06	11.1 ± 0.1	15.9 ± 0.1	27.5 ± 0.2	53.1 ± 0.3	106.8 ± 1.9	214.3 ± 6.9
318.15 K	2.98 ± 0.03	3.52 ± 0.03	4.65 ± 0.04	6.53 ± 0.05	8.88 ± 0.07	14.1 ± 0.1	23.9 ± 0.2	42.7 ± 0.3	80.6 ± 1

OCCCl + CCCCOC(C)=O
viscosity [mPa·s], 101.33 kPa
Details	x1 = 0.1068	x1 = 0.2078	x1 = 0.3045	x1 = 0.4056	x1 = 0.5002	x1 = 0.5993	x1 = 0.7	x1 = 0.8008	x1 = 0.8994
298.15 K	0.718 ± 0.005	0.784 ± 0.006	0.865 ± 0.006	0.97 ± 0.007	1.105 ± 0.008	1.286 ± 0.009	1.549 ± 0.011	1.919 ± 0.014	2.359 ± 0.017
303.15 K	0.669 ± 0.005	0.732 ± 0.005	0.801 ± 0.006	0.894 ± 0.006	1.013 ± 0.007	1.169 ± 0.008	1.391 ± 0.01	1.704 ± 0.012	2.106 ± 0.015
308.15 K	0.627 ± 0.005	0.684 ± 0.005	0.746 ± 0.005	0.828 ± 0.006	0.932 ± 0.007	1.07 ± 0.007	1.262 ± 0.009	1.518 ± 0.011	1.849 ± 0.014

CC(C)C#N + Cc1ccc(C)cc1
viscosity [mPa·s], 101 kPa
Details	x2 = 0.1003	x2 = 0.2009	x2 = 0.3014	x2 = 0.4041	x2 = 0.4978	x2 = 0.6013	x2 = 0.7001	x2 = 0.8003	x2 = 0.8998
303.15 K	0.474 ± 0.008	0.482 ± 0.008	0.484 ± 0.008	0.498 ± 0.008	0.505 ± 0.008	0.519 ± 0.008	0.531 ± 0.008	0.55 ± 0.008	0.558 ± 0.008
308.15 K	0.444 ± 0.008	0.453 ± 0.008	0.453 ± 0.008	0.461 ± 0.008	0.473 ± 0.008	0.485 ± 0.008	0.495 ± 0.008	0.507 ± 0.008	0.519 ± 0.008

OCCCO + C1COCCO1
viscosity [mPa·s], 100 kPa
Details	x2 = 0.0996	x2 = 0.2019	x2 = 0.2972	x2 = 0.3986	x2 = 0.4989	x2 = 0.5998	x2 = 0.6951	x2 = 0.8062	x2 = 0.9159
293.15 K	38.51 ± 7.7	26.36 ± 5.3	17.15 ± 3.4	10.05 ± 2	5.655 ± 1.1	3.887 ± 0.78	2.715 ± 0.54	2.018 ± 0.4	1.288 ± 0.26
298.15 K	29.32 ± 5.9	20.14 ± 4	12.96 ± 2.6	8.427 ± 1.7	4.847 ± 0.97	3.375 ± 0.68	2.402 ± 0.48	1.806 ± 0.36	1.145 ± 0.23
303.15 K	23.39 ± 4.7	15.44 ± 3.1	10.21 ± 2	6.477 ± 1.3	4.086 ± 0.82	2.968 ± 0.59	2.14 ± 0.43	1.632 ± 0.33	1.053 ± 0.21

Cc1cccc(C(C)C)c1 + Cc1ccc(C(C)C)cc1
101 kPa, x2 = 0.4
Details	viscosity [mPa·s]
293.15 K	0.8 ± 0.1
313.15 K	0.72 ± 0.02

OCCCl + Cc1ccccc1N
viscosity [mPa·s], 100 kPa
Details	x2 = 0.1141	x2 = 0.2148	x2 = 0.3201	x2 = 0.4123	x2 = 0.5121	x2 = 0.6225	x2 = 0.7112	x2 = 0.8184	x2 = 0.9017
303.15 K	2.67 ± 0.16	2.744 ± 0.17	2.82 ± 0.17	2.884 ± 0.17	2.953 ± 0.18	3.026 ± 0.18	3.084 ± 0.19	3.151 ± 0.19	3.202 ± 0.19
308.15 K	2.312 ± 0.14	2.378 ± 0.14	2.445 ± 0.15	2.502 ± 0.15	2.562 ± 0.15	2.626 ± 0.16	2.676 ± 0.16	2.734 ± 0.17	2.777 ± 0.17
313.15 K	1.963 ± 0.12	2.031 ± 0.12	2.099 ± 0.13	2.157 ± 0.13	2.219 ± 0.13	2.285 ± 0.14	2.337 ± 0.14	2.396 ± 0.14	2.44 ± 0.15
318.15 K	1.645 ± 0.099	1.711 ± 0.1	1.777 ± 0.11	1.834 ± 0.11	1.893 ± 0.11	1.958 ± 0.12	2.008 ± 0.12	2.067 ± 0.12	2.108 ± 0.13

OCCCl + CCOC(C)=O
viscosity [mPa·s], 101.33 kPa
Details	x1 = 0.1033	x1 = 0.2006	x1 = 0.3231	x1 = 0.4048	x1 = 0.5015	x1 = 0.6007	x1 = 0.7022	x1 = 0.8	x1 = 0.9
298.15 K	0.485 ± 0.004	0.542 ± 0.004	0.643 ± 0.005	0.729 ± 0.005	0.864 ± 0.006	1.065 ± 0.008	1.326 ± 0.01	1.689 ± 0.013	2.242 ± 0.017
303.15 K	0.454 ± 0.004	0.51 ± 0.004	0.601 ± 0.005	0.679 ± 0.005	0.8 ± 0.006	0.967 ± 0.007	1.2 ± 0.009	1.517 ± 0.011	1.98 ± 0.014
308.15 K	0.43 ± 0.003	0.482 ± 0.004	0.565 ± 0.004	0.635 ± 0.005	0.746 ± 0.005	0.894 ± 0.006	1.098 ± 0.008	1.369 ± 0.009	1.776 ± 0.012

NC=O + c1ccncc1
298.15 K, 101 kPa
Details	viscosity [mPa·s]
x1 = 0.129	1.064 ± 0.21
x1 = 0.1798	1.16 ± 0.23
x1 = 0.2662	1.365 ± 0.27
